Source: PMC4450297, “Screening Active Compounds from Garcinia Species Native to China Reveals Novel Compounds Targeting the STAT/JAK Signaling Pathway” (BioMed Research International, 2015)

System: NCI-H2405
Assay: Cell panel screen (CellTiter-Glo)
Assay type: cell-based, human
Settings: NCI-H2405 (Lung), 20 micromolar, 72 hrs
Procedure, shortened: (§1)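 Single-concentration screen: 20 μM compound, 72 h, versus DMSO-only untreated cells. Viability read by CellTiter-Glo luminescence; % inhibition = (untreated − treated)/(untreated − no-cell background) × 100. Cells grown in recommended media plus 10% FBS at 37° C.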

SMILES | Percent Inhibition
CC(C)=CCc1c2c(c(O)c3c1O[C@]14C(=C[C@@H]5C[C@H]1C(C)(C)O[C@@]4(C/C=C(\C)CO)C5=O)C3=O)C=CC(C)(C)O2 [GB18] | 99%

System: MSTO-211-H
Assay: Cell panel screen (CellTiter-Glo)
Assay type: cell-based, human
Settings: MSTO-211-H (Lung), 20 micromolar, 72 hrs
Procedure, shortened: as §1

SMILES | Percent Inhibition
CC(C)=CCc1c2c(c(O)c3c1O[C@]14C(=C[C@@H]5C[C@H]1C(C)(C)O[C@@]4(C/C=C(\C)CO)C5=O)C3=O)C=CC(C)(C)O2 [GB18] | 99%

System: HCC1937
Assay: Cell panel screen (CellTiter-Glo)
Assay type: cell-based, human
Settings: HCC1937 (Breast), 20 micromolar, 72 hrs
Procedure, shortened: as §1

SMILES | Percent Inhibition
CC(C)=CCc1c2c(c(O)c3c1O[C@]14C(=C[C@@H]5C[C@H]1C(C)(C)O[C@@]4(C/C=C(\C)CO)C5=O)C3=O)C=CC(C)(C)O2 [GB18] | 98%

System: HT-1197
Assay: Cell panel screen (CellTiter-Glo)
Assay type: cell-based, human
Settings: HT-1197 (Urinary bladder), 20 micromolar, 72 hrs
Procedure, shortened: as §1

SMILES | Percent Inhibition
CC(C)=CCc1c2c(c(O)c3c1O[C@]14C(=C[C@@H]5C[C@H]1C(C)(C)O[C@@]4(C/C=C(\C)CO)C5=O)C3=O)C=CC(C)(C)O2 [GB18] | 99%

System: CCF-STTG1
Assay: Cell panel screen (CellTiter-Glo)
Assay type: cell-based, human
Settings: CCF-STTG1 (Brain), 20 micromolar, 72 hrs
Procedure, shortened: as §1

SMILES | Percent Inhibition
CC(C)=CCc1c2c(c(O)c3c1O[C@]14C(=C[C@@H]5C[C@H]1C(C)(C)O[C@@]4(C/C=C(\C)CO)C5=O)C3=O)C=CC(C)(C)O2 [GB18] | 99%

System: CW-2
Assay: Cell panel screen (CellTiter-Glo)
Assay type: cell-based, human
Settings: CW-2 (Colon), 20 micromolar, 72 hrs
Procedure, shortened: as §1

SMILES | Percent Inhibition
CC(C)=CCc1c2c(c(O)c3c1O[C@]14C(=C[C@@H]5C[C@H]1C(C)(C)O[C@@]4(C/C=C(\C)CO)C5=O)C3=O)C=CC(C)(C)O2 [GB18] | 99%

System: Bel-7402
Assay: Cell panel screen (CellTiter-Glo)
Assay type: cell-based, human
Settings: Bel-7402 (Liver), 20 micromolar, 72 hrs
Procedure, shortened: as §1

SMILES | Percent Inhibition
CC(C)=CCc1c2c(c(O)c3c1O[C@]14C(=C[C@@H]5C[C@H]1C(C)(C)O[C@@]4(C/C=C(\C)CO)C5=O)C3=O)C=CC(C)(C)O2 [GB18] | 99%

System: RL95
Assay: Cell panel screen (CellTiter-Glo)
Assay type: cell-based, human
Settings: RL95 (Uterus), 20 micromolar, 72 hrs
Procedure, shortened: as §1

SMILES | Percent Inhibition
CC(C)=CCc1c2c(c(O)c3c1O[C@]14C(=C[C@@H]5C[C@H]1C(C)(C)O[C@@]4(C/C=C(\C)CO)C5=O)C3=O)C=CC(C)(C)O2 [GB18] | 99%

System: NCI-H524
Assay: Cell panel screen (CellTiter-Glo)
Assay type: cell-based, human
Settings: NCI-H524 (Lung), 20 micromolar, 72 hrs
Procedure, shortened: as §1

SMILES | Percent Inhibition
CC(C)=CCc1c2c(c(O)c3c1O[C@]14C(=C[C@@H]5C[C@H]1C(C)(C)O[C@@]4(C/C=C(\C)CO)C5=O)C3=O)C=CC(C)(C)O2 [GB18] | 100%

System: NCI-H2347
Assay: Cell panel screen (CellTiter-Glo)
Assay type: cell-based, human
Settings: NCI-H2347 (Lung), 20 micromolar, 72 hrs
Procedure, shortened: as §1

SMILES | Percent Inhibition
CC(C)=CCc1c2c(c(O)c3c1O[C@]14C(=C[C@@H]5C[C@H]1C(C)(C)O[C@@]4(C/C=C(\C)CO)C5=O)C3=O)C=CC(C)(C)O2 [GB18] | 97%

System: NCI-H1623
Assay: Cell panel screen (CellTiter-Glo)
Assay type: cell-based, human
Settings: NCI-H1623 (Lung), 20 micromolar, 72 hrs
Procedure, shortened: as §1

SMILES | Percent Inhibition
CC(C)=CCc1c2c(c(O)c3c1O[C@]14C(=C[C@@H]5C[C@H]1C(C)(C)O[C@@]4(C/C=C(\C)CO)C5=O)C3=O)C=CC(C)(C)O2 [GB18] | 99%

System: Panc 03.27
Assay: Cell panel screen (CellTiter-Glo)
Assay type: cell-based, human
Settings: Panc 03.27 (Pancreas), 20 micromolar, 72 hrs
Procedure, shortened: as §1

SMILES | Percent Inhibition
CC(C)=CCc1c2c(c(O)c3c1O[C@]14C(=C[C@@H]5C[C@H]1C(C)(C)O[C@@]4(C/C=C(\C)CO)C5=O)C3=O)C=CC(C)(C)O2 [GB18] | 99%

System: M059J
Assay: Cell panel screen (CellTiter-Glo)
Assay type: cell-based, human
Settings: M059J (Brain), 20 micromolar, 72 hrs
Procedure, shortened: as §1

SMILES | Percent Inhibition
CC(C)=CCc1c2c(c(O)c3c1O[C@]14C(=C[C@@H]5C[C@H]1C(C)(C)O[C@@]4(C/C=C(\C)CO)C5=O)C3=O)C=CC(C)(C)O2 [GB18] | 99%

System: A498
Assay: Cell panel screen (CellTiter-Glo)
Assay type: cell-based, human
Settings: A498 (listed under Lung), 20 micromolar, 72 hrs
Procedure, shortened: as §1

SMILES | Percent Inhibition
CC(C)=CCc1c2c(c(O)c3c1O[C@]14C(=C[C@@H]5C[C@H]1C(C)(C)O[C@@]4(C/C=C(\C)CO)C5=O)C3=O)C=CC(C)(C)O2 [GB18] | 93%

System: ChaGo-K-1
Assay: Cell panel screen (CellTiter-Glo)
Assay type: cell-based, human
Settings: ChaGo-K-1 (Lung), 20 micromolar, 72 hrs
Procedure, shortened: as §1

SMILES | Percent Inhibition
CC(C)=CCc1c2c(c(O)c3c1O[C@]14C(=C[C@@H]5C[C@H]1C(C)(C)O[C@@]4(C/C=C(\C)CO)C5=O)C3=O)C=CC(C)(C)O2 [GB18] | 99%

System: NCI-H1770
Assay: Cell panel screen (CellTiter-Glo)
Assay type: cell-based, human
Settings: NCI-H1770 (Lung), 20 micromolar, 72 hrs
Procedure, shortened: as §1

SMILES | Percent Inhibition
CC(C)=CCc1c2c(c(O)c3c1O[C@]14C(=C[C@@H]5C[C@H]1C(C)(C)O[C@@]4(C/C=C(\C)CO)C5=O)C3=O)C=CC(C)(C)O2 [GB18] | 99%

System: T47D
Assay: Cell panel screen (CellTiter-Glo)
Assay type: cell-based, human
Settings: T47D (Breast), 20 micromolar, 72 hrs
Procedure, shortened: as §1

SMILES | Percent Inhibition
CC(C)=CCc1c2c(c(O)c3c1O[C@]14C(=C[C@@H]5C[C@H]1C(C)(C)O[C@@]4(C/C=C(\C)CO)C5=O)C3=O)C=CC(C)(C)O2 [GB18] | 99%

System: A704
Assay: Cell panel screen (CellTiter-Glo)
Assay type: cell-based, human
Settings: A704 (Kidney), 20 micromolar, 72 hrs
Procedure, shortened: as §1

SMILES | Percent Inhibition
CC(C)=CCc1c2c(c(O)c3c1O[C@]14C(=C[C@@H]5C[C@H]1C(C)(C)O[C@@]4(C/C=C(\C)CO)C5=O)C3=O)C=CC(C)(C)O2 [GB18] | 99%
